Each block holds one compound with its values, some of them ahead of it.
Assays:
lysozyme = lysozyme (Gallus gallus, UniProt P00698); test: Photo-affinity labeling of lysozyme with C15pacFA (specificity control), click reaction with biotin-azide, Western blot; assay type: binding; details: same conditions as BSA; protein known not to interact with lipids
Method: FIG. 5. Panel A, Proof-of-concept for the specific interaction of pacFA with a fatty acid binding protein. An ethanolic solution of C15pacFA was added to a solution of defatted-BSA or lysozyme in PBS as described above. After incubating for 1 hour at room temperature samples were UV-irradiated and 20 μl were subjected to click reaction with biotin-azide. Samples were analyzed by SDS-PAGE, followed by Western blotting and detection via NeutrAvidin coupled to horse radish peroxidase. Panel B, SDS-PAGE and subsequent staining with Coomassie brilliant blue.
Serum albumin binds and transports fatty acids. As a proof-of-concept that C15pacFA can be used to tag proteins with an affinity for fatty acids, defatted bovine serum albumin (BSA) was incubated with C15pacFA and subsequently UV-irradiated. […]
Samples were irradiated applying a 200 W high pressure mercury lamp (Oriel Photomax) equipped with a PYREX® glass filter to remove wavelengths below 350 nm. […] An ethanolic solution of 10-azi stearic acid (10-ASA) was irradiated under the conditions described above and the loss of absorption at 349.5 nm was monitored (FIG. 9, Panel A). […] To exclude degradation of proteins under these conditions a 1 mg/ml solution of BSA was irradiated up to 5 minutes and analyzed by gel electrophoresis and subsequent Coomassie staining (FIG. 9, Panel B). […]

[1] = tested on: membrane and cytosolic proteins of CHO-CGalT cells; test: In vivo labeling of cells with C15pacFA, alexa488-azide click of membranes and cytosol, SDS-PAGE in-gel fluorescence; assay type: cell-based; details: membranes and cytosol after UV irradiation
Method: FIG. 2. In vivo labeling of proteins interacting with lipids. CHO-CGalT cells were labeled with and without 100 μM C15pacFA for 16 hours. Where indicated, cells were UV irradiated. Total membranes were separated from cytosol. The cytosolic proteins were precipitated by CHCl3/MeOH precipitation and total membranes as well as the cytosolic precipitate were subjected to click reaction conditions using alexa488-azide or biotin-azide. Panel A, Proteins labeled with alexa488-azide were separated by SDS-PAGE and analyzed by in-gel fluorescence. […] The lanes were cut into ten gel pieces as indicated and analyzed by mass spectrometry as described herein. […]
In order to see whether pacFAs can be used to investigate protein-lipid interactions in vivo, we administered C15pacFA to cells. […] Both membranes and cytosol were subjected to click reaction conditions and samples were analyzed by SDS-PAGE and in-gel fluorescence (FIG. 2). […] 208 proteins were identified that were exclusively detected upon labeling cells with C15pacFA (FIG. 2, Panel D, lane III). […] Proteins that were exclusively detected upon labeling with C15pacFA and subsequent cross-linking (lane IV) are given in Table 2. […]

HeLa cells = test: Cell imaging of bifunctional lipids: UV fixation, lipid extraction, alexa-azide click, fluorescent microscopy; assay type: cell-based; details: UV irradiated versus non-irradiated, non-crosslinked lipids extracted
Method: Microscopy of lipids requires a fluorescent tag on the lipid. In contrast to polyene lipids, most fluorescent tags interfere with the properties of thus labeled lipids.^[24] […] Lipids are highly dynamic and their chemical fixation remained difficult. […] To this end, C15pacFA was administered to cells. Lipids were fixed in vivo by UV-irradiation followed by the fixation of cells with methanol. In order to remove non-protein-crosslinked lipids, cells were extracted according to Bligh and Dyer.^[27] Samples were subjected to click reactions with alexa-azide and lipids were visualized by fluorescent microscopy.
HeLa cells grown on cover slips in a 24-well plate were labeled for 1 hour in 0.5 ml DMEM 4.5 g/liter glucose supplemented with 10% delipidated FCS and 100 μM C15pacFA. The cells were washed with 0.5 mL PBS, overlaid with 0.5 mL PBS and UV irradiated on ice for 2 minutes. After UV irradiation the cells were fixed with 0.5 mL of −20° C. cold MeOH for 10 minutes. After fixation cells were subjected to one, two or three rounds of lipid extraction according to Bligh and Dyer using 0.5 ml of CHCl3/MeOH/AcOH 10:55:0.75 v/v for each extraction (for each extraction coverslips were incubated for 1 minute at room temperature). The coverslips were washed with 0.5 mL PBS and then subjected to click reactions. […]

CHO-CGalT cells [2] = test: Incorporation of pacFAs into cellular lipids, lipid extracts analysed by nano-ESI-MS/MS; assay type: cell-based; details: 100 μM, 16 hours
Method: FIGS. 7A and 7B. Mass spectrometric analysis of photoactivatable and clickable PC species. CHO-CGaIT cells (−5×10^7 cells) were labeled for 16 hours in delipidated medium in the absence (upper panel) or presence (lower panel) of 100 μM (FIG. 7A) C15pacFA or (FIG. 7B) C16pacFA. Lipids were extracted, dried and subsequently dissolved in 5 mM ammonium acetate in MeOH and subjected to nano-ESI-MS/MS. Shown are PREC184 spectra visualizing choline phosphate-containing lipids. Abbreviations give the total number of carbon atoms of fatty acids attached and the numbers of double bonds within the fatty acid. Transparent bars highlight PC species containing the pacFAs.
Given the small size of fatty acids, additional functional groups might have an impact on their physical properties. Due to the rigidity of the triple bond pacFAs are slightly kinked in the end and their overall length is shorter compared with their corresponding natural counterparts. […] Phosphatidylcholine (PC) is the major lipid class in eukaryotic cells. To analyze choline phosphate containing species, a precursor ion scanning procedure was employed selecting for fragments with a mass of 184 Da. […] UV irradiation of the lipid extracts gave rise to peaks with a mass 28 Da lower than the corresponding pacPC species due to the release of nitrogen followed by either an α-hydrogen migration or an intramolecular crosslink of the carbene (data not shown).^[4] […] SM16:0 is the major SM species in CHO cells. Its biosynthesis requires two palmitoyl-CoA: (i) as a precursor of the sphingoid backbone and (ii) for its N-acylation. The length of the N-acylated fatty acid is strictly controlled since there is no SM14:0 and only a minor amount of SM18:0 in CHO cells.^[5] Therefore, we assumed that the chain length of C15pacFA might interfere with its incorporation into SM. […]
Lipids were extracted according to Bligh and Dyer and analyzed as described previously (K. Retra, O. B. Bleijerveld, R. A. van Gestel, A. G. Tielens, J. J. van Hellemond, J. F. Brouwers, Rapid Commun. Mass Spectrom. 2008, 22, 1853.^[20]

[3] = molecular target: defatted bovine serum albumin (BSA) (Bos taurus, UniProt P02769); test: Photo-affinity labeling of defatted BSA with C15pacFA, click reaction with biotin-azide, Western blot; assay type: binding; details: incubation with C15pacFA, UV-irradiation and click reaction with biotin-azide
Method: As a proof-of-concept that C15pacFA can be used to tag proteins with an affinity for fatty acids, defatted bovine serum albumin (BSA) was incubated with C15pacFA and subsequently UV-irradiated. Thereafter, the mixture was subjected to a click reaction, applying biotin-azide (see FIG. 5). […] CuSO4 serves as a source for Cu(I) that is required for the catalytic cycle of the [3+2] cyclo-addition and was formed in situ by the addition of the reducing agent TCEP.
Samples were irradiated applying a 200 W high pressure mercury lamp (Oriel Photomax) equipped with a PYREX® glass filter to remove wavelengths below 350 nm. Samples were placed on ice at a distance from 35 cm from the light source. […] Samples were UV irradiated for 1 minute. […]

CHO-CGalT cells [4] = test: Morphology of cells after labeling with pacFAs; assay type: cell-based; details: cells labeled with pacFA
[5] = UV activation of the photoactivatable diazirine ring, loss of absorption at 349.5 nm; assay type: physicochemical; details: ethanolic solution, thirty seconds of irradiation, 200 W mercury lamp, filter below 350 nm
Method: FIG. 9. Panel A, Activation of the photoactivatable diazirine ring was optimized by exposing an ethanolic solution of 10-azi-stearic acid (10-ASA) under the described conditions to UV-light for the indicated time. Absorbance at 349.5 nm was measured to monitor decay of 10-ASA. Panel B, A solution of defatted BSA (1 mg/ml) was irradiated under the same conditions and analyzed by SDS-PAGE.
Samples were irradiated applying a 200 W high pressure mercury lamp (Oriel Photomax) equipped with a PYREX® glass filter to remove wavelengths below 350 nm. Samples were placed on ice at a distance from 35 cm from the light source. In order to optimize cross-linking conditions we made use of the characteristic absorption of the diazirine group (FIG. 8). An ethanolic solution of 10-azi stearic acid (10-ASA) was irradiated under the conditions described above and the loss of absorption at 349.5 nm was monitored (FIG. 9, Panel A). Thirty seconds of irradiation activated 95% of the photoactivatable group. Samples were UV irradiated for 1 minute. To exclude degradation of proteins under these conditions a 1 mg/ml solution of BSA was irradiated up to 5 minutes and analyzed by gel electrophoresis and subsequent Coomassie staining (FIG. 9, Panel B). […]

[6] = Stability of terminal alkyne towards UV irradiation, 1H-NMR analysis; assay type: physicochemical; details: irradiation for 5 minutes

lysozyme, sequence (P00698 19-147): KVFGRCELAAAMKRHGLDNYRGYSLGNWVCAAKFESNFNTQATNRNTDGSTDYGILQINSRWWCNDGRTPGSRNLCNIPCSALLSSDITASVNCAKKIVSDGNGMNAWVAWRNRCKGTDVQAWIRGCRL
defatted bovine serum albumin (BSA), sequence (P02769 25-607): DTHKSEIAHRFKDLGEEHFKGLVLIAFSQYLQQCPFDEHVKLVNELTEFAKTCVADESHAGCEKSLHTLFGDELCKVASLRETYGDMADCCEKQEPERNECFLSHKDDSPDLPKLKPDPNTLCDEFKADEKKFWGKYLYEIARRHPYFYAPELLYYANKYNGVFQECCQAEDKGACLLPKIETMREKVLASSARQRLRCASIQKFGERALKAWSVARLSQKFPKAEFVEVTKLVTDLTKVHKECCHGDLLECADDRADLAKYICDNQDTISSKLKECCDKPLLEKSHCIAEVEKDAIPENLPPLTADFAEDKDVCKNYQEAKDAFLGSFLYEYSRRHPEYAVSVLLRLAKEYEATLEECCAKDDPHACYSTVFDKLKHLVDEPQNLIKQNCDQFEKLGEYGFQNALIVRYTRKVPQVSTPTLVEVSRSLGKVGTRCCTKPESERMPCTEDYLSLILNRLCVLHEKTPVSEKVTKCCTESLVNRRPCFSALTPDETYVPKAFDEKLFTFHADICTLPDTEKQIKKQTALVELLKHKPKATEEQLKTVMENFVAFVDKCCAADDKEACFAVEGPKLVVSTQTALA

labeling of lysozyme (lysozyme): no labeling of lysozyme was observed
labeling of BSA [3]: BSA could be labeled
SMILES: C#CCCCC1(CCCCCCCCC(=O)O)N=N1 [C15pacFA, 9-(3-pent-4-ynyl-3-H-diazirin-3-yl)-nonanoic acid]
proteins labeled by photo-affinity labeling (in-gel fluorescence) [1]: not only membrane proteins were labeled by means of photo-affinity labeling but also cytosolic proteins
fluorescent structures after click reaction with alexa-azide (HeLa cells): Fluorescent structures were only visible in the UV irradiated samples
incorporation into sphingomyelin (SM) (CHO-CGalT cells [2]): No significant incorporation
incorporation into phosphatidylcholine (pacPC species) (CHO-CGalT cells [2]; precursor ion scan 184 Da): led to additional peaks corresponding to pacPC species
morphological differences after labeling (CHO-CGalT cells [4]): No morphological differences were observed

SMILES: C#CCCCC1(CCCCCCCCC(=O)O)N=N1 [C16pacFA, 9-(3-Pent-4-ynyl-3-H-diazirin-3-yl)-nonanoic acid]
incorporation into sphingomyelin (SM) (CHO-CGalT cells [2]): no incorporation
morphological differences after labeling (CHO-CGalT cells [4]): No morphological differences were observed

SMILES: CCCCCCCCC1(CCCCCCCCC(=O)O)N=N1 [10-ASA, 10-azi-stearic acid]
activation of the photoactivatable group [5]: 95%

SMILES: C#CCc1ccccc1 [3-phenyl-1-propyne]
stability towards UV irradiation [6]: stability of alkynes towards UV irradiation
